Measured values from US20240279232A1, “USE OF SUBSTITUTED 5-(4-METHYL-6-PHENYL-4H-BENZO[F]IMIDAZO[1,5-A][1,4] DIAZEPIN-3-YL)-1,2,4-O[…] THE TREATMENT OF INFLAMMATORY CONDITIONS” (priority 2021, published 2024).

Legend:
Mouse microglia [1] = assay: Cell viability (CellTiter-Glo), mouse microglia; type: cell-based; details: 50 μM, CellTiter-Glo
In short: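 Mouse microglia (1×10^6 cells/mL) activated with 50 ng/ml LPS plus 150 U/mL IFNγ, incubated with compounds ~24 h at 37° C. Viability of remaining cells read by CellTiter-Glo luminescence after supernatant removal for Griess NO assay; […].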

Mouse microglia [2] = assay: NO production (Griess assay), LPS/IFNγ-activated mouse microglia; type: cell-based; details: for Inhibition of NO production (%) Mouse microglia 10 μM: 24 hours, 1 μM GABA, LPS/IFNγ
RAW macrophages [3] = assay: NO production (Griess assay), LPS/IFNγ-activated RAW264.7 macrophages; type: cell-based, mouse; details: for Inhibition of NO production (%) RAW macrophages 10 μM: 24 hours, 1 μM GABA, LPS/IFNγ
HEPG2 = assay: Viability assay (CellTiter-Glo), HEPG2; type: cell-based, human; details: 120 μM, CellTiter-Glo
HEK293 = assay: Viability assay (CellTiter-Glo), HEK293; type: cell-based, human; details: 120 μM, CellTiter-Glo
RAW macrophages [4] = assay: Cell viability (CellTiter-Glo), RAW macrophages; type: cell-based, mouse; details: CellTiter-Glo

Compound | Cell viability (%) Mouse microglia 50 μM (Mouse microglia [1]) | Inhibition of NO production (%) Mouse microglia 10 μM (Mouse microglia [2]) | Inhibition of NO production (%) RAW macrophages 10 μM (RAW macrophages [3]) | Cell viability (%) HEPG2 120 μM (HEPG2) | Cell viability (%) HEK293 120 μM (HEK293) | Cell viability (%) RAW macrophages 50 μM (RAW macrophages [4]) | inhibition at 10 µM (Mouse microglia [2]; Mus musculus, Microglia, 24 h) | inhibition at 10 µM (RAW macrophages [3]; Mus musculus, Macrophage, 24 h) | inhibition at 50 µM (Mouse microglia [2]; Mus musculus, Microglia, 24 h) | inhibition at 50 µM (RAW macrophages [3]; Mus musculus, Macrophage, 24 h)
C#Cc1ccc2c(c1)C(c1ccccc1F)=NC(C)c1c(C(=S)NCC)ncn1-2 (centres unmarked) [GL-III-86] | 99 ± 15% | 39 ± 7% | 7 ± 4% | 100 ± 8% | 66 ± 10% | 100 ± 14% | – | – | – | –
C#Cc1ccc2c(c1)C(c1ccccc1F)=NC(C)c1c(C(=S)NC3CC3)ncn1-2 (centres unmarked) [GL-III-87] | 100 ± 2% | 23 ± 7% | 0 ± 1% | 100 ± 5% | 90 ± 10% | 100 ± 7% | – | – | – | –
C#Cc1ccc2c(c1)C(c1ccccn1)=N[C@H](C)c1c(-c3nc(CC)no3)ncn1-2 [GL-III-97] | 100 ± 4% | 11 ± 6% | 6 ± 1% | 100 ± 12% | 54 ± 9% | 98 ± 3% | – | – | – | –
CCc1noc(-c2ncn3c2[C@@H](C)N=C(c2ccccc2F)c2cc(Br)ccc2-3)n1 [GL-III-98, (R)-5-(8-Bromo-6-(2-fluorophenyl)-4-methyl-4H-benzo[f]imidazo[1,5-a][1,4]diazepin-3-yl)-3-ethyl-1,2,4-oxadiazole] | 83 ± 6% | – | – | 56 ± 5% | 42 ± 8% | 100 ± 11% | 75 ± 9% | 1 ± 4% | – | –
CCc1noc(-c2ncn3c2CN=C(c2ccccn2)c2cc(Br)ccc2-3)n1 [GL-III-99] | 95 ± 9% | 49 ± 5% | 19 ± 3% | 93 ± 7% | 87 ± 11% | 100 ± 9% | – | – | – | –
CC(C)c1noc(-c2ncn3c2[C@@H](C)N=C(c2ccccc2F)c2cc(Br)ccc2-3)n1 [GL-IV-01, (R)-5-(8-Bromo-6-(2-fluorophenyl)-4-methyl-4H-benzo[f]imidazo[1,5-a][1,4]diazepin-3-yl)-3-isopropyl-1,2,4-oxadiazole] | 100 ± 9% | – | – | 100 ± 9% | 72 ± 8% | 100 ± 9% | 56 ± 11% | 17 ± 7% | – | –
CC(C)c1noc(-c2ncn3c2[C@@H](C)N=C(c2ccccc2F)c2cc(C4CC4)ccc2-3)n1 [GL-IV-04, (R)-5-(8-Cyclopropyl-6-(2-fluorophenyl)-4-methyl-4H-benzo[f]imidazo[1,5-a][1,4]diazepin-3-yl)-3-isoproyl-1,2,4-oxadiazole] | 86 ± 6% | – | – | 100 ± 6% | 71 ± 6% | 100 ± 7% | 62 ± 8% | 11 ± 2% | – | –
CCOC(=O)c1ncn2c1CN=C(c1ccccn1)c1cc(C3CC3)ccc1-2 [GL-IV-05] | 88 ± 12% | 59 ± 4% | 14 ± 3% | 100 ± 10% | 47 ± 3% | 100 ± 6% | – | – | – | –
C#Cc1ccc2c(c1)C(c1ccccc1F)=NC(C)c1c(C(=O)[O-])ncn1-2.[Na+] (centres unmarked) [GL-IV-17] | 89 ± 9% | 41 ± 5% | 5 ± 5% | 93 ± 8% | 67 ± 5% | 100 ± 5% | – | – | – | –
CC1N=C(c2ccccc2F)c2cc(Br)ccc2-n2cnc(C(=O)[O-])c21.[Na+] (centres unmarked) [GL-IV-18] | 81 ± 10% | 63 ± 9% | 10 ± 7% | 80 ± 14% | 88 ± 5% | 98 ± 5% | – | – | – | –
C#Cc1ccc2c(c1)C(c1ccccc1F)=N[C@H](C)c1c(-c3nc(CC)no3)ncn1-2 [MP-IV-005, (R)-3-ethyl-5-(8-ethynyl-6-(2-fluorophenyl)-4-methyl-4H-benzo[f]imidazo[1,5-a][1,4]diazepin-3-yl)-1,2,4-oxadiazole] | 86 ± 13% | – | – | 98 ± 8% | 68 ± 14% | 86 ± 14% | 45 ± 3% | 5 ± 3% | 89 ± 17% | 59 ± 9%
C#Cc1ccc2c(c1)C(c1ccccc1)=NCC(=O)N2C [QH-II-66] | 97 ± 11% | 54 ± 9% | 17 ± 6% | 100 ± 4% | 81 ± 2% | 100 ± 12% | – | – | – | –
